# Data from patent publication US12383699B2, “Catheter attachment made of plastic that contains molecularly dispersed polychlorinated phenoxyphenol (PCPP)” (priority 2017, dated 2025).
# System: fibroblasts
# Assay: fibroblast cytotoxicity test (MTT)
# Format: cell-based
# Excerpt: In FIG. 3, the following meanings apply: Mic: miconazole, Tri: trimetoprim, Rif: rifampicin, Irg: Irgasan, Gen: gentamicin, Fus: fusidic acid, Oct: octenidine, Ben: benzylpenicillin, Chl: chlorohexidine, Cli: clindamycine.
smiles,measurement,setting,value
"Oc1cc(Cl)ccc1Oc1ccc(Cl)cc1Cl [Irgasan, 5-chloro-2-(2,4-dichlorophenoxy)phenol]",maximum concentration up to which fibroblasts are hardly inhibited and the substance is non-toxic,"FIG. 3, MTT",≤ 10 µg/mL
same,adverse affection in fibroblast-cytotoxicity test,"Irgasan release (cm^2) of 2-4 mg/I, release rates for inhibition zones of about 20 mm",only a minimum adverse affection
